Measurements from patent US20220017512A1 (SHANGHAI ENNOVABIO PHARMACEUTICALS CO., LTD., priority 2018, published 2022).
pIC50: −log10 of the molar value.

Legend:
Assay type in all cases: biochemical
[1] = target: T1, Recombinant human TRKC (Homo sapiens, UniProt Q16288); assay: In vitro activity test on TRKC kinase (HTRF KinEASE TK); settings: 25.64 μM ATP, 40 min
T1 construct: purchased Carna Biosciences
Description: (§1) Biological Test Example 1 In Vitro Activity Test on TRKA, TRKB, TRKC Kinase
(§2) Recombinant human TRKA, TRKB, TRKC proteins were purchased from Carna Biosciences. HTRF KinEASE TK kit was purchased from Cisbio Bioassays. Synergy Neo 2 of Biotek was used to read the plate.
(§3) The tested compound was subjected to 3-fold serial dilution to reach a final concentration of 1 μM to 0.05 nM (10 concentrations), duplicates for each concentration; and the DMSO concentration in the detection reaction was 1%.
0.037 ng/μL TRKC protein kinase, 1 μM TK Substrate-biotin polypeptide substrate, 25.64 μM ATP, 1× enzymatic buffer, 5 mM MgCl2, and 1 mM DTT. The detection plate was White Proxiplate 384-Plus plate (PerkinElmer), and incubated at room temperature for 40 min, and the assay volume was 10 μL.
(§4) 10 μL of detection reagent was added to the plate (containing 0.125 μM SA-XL665 and 5 μL 1×TK-Antibody) and incubated overnight at room temperature, and Synergy Neo 2 was used to read the plate.
(§5) The 665/620 Ratio was converted according to the following formula into inhibition rate (%)=(1−Ratiotest/Ratiomax)×100%. Ratiomax was a positive control without tested compound, and Ratiotest was the value of each concentration of different compounds. IC50 (nM) data was obtained by 4 parameter curve fitting (see Table 1).

[2] = target: T2, recombinant human TRKA (G595R) (Homo sapiens, UniProt P04629, G595R); assay: In vitro activity test on mutant TRKA (G595R) (HTRF KinEASE TK); settings: 4.5 μM ATP, 30 min
T2 construct: purchased SignalChem
T2 sequence (P04629 33-796 G595R): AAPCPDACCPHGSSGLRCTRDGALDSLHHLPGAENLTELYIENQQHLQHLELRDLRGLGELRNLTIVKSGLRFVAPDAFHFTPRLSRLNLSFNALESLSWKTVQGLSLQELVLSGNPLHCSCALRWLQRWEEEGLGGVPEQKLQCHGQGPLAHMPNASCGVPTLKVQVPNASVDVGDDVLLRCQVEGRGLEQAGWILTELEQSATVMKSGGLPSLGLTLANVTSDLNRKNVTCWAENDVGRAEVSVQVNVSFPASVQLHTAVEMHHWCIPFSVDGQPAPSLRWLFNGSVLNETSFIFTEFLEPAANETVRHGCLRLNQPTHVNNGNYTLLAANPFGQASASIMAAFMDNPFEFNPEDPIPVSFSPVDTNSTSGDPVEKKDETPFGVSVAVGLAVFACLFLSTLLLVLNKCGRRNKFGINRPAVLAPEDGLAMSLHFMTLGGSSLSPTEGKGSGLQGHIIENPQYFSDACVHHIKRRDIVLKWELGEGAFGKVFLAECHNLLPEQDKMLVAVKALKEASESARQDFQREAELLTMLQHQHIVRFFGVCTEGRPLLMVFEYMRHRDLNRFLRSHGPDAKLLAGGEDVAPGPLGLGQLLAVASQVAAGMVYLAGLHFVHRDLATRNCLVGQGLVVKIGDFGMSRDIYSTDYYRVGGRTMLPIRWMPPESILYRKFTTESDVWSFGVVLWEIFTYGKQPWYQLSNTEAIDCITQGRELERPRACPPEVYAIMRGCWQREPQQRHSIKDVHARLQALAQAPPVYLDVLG
Description: Biological Test Example 2 In Vitro Activity Test on Mutant TRKA (G595R), TRKA (G667C) and TRKC (G623R)
The recombinant human TRKA (G595R), TRKA (G667C) and TRKC (G623R) proteins were purchased from SignalChem. HTRF kinEASE TK kit was purchased from CisbioBioassays. Synergy Neo 2 of Biotek was used to read the plate.
The tested compound was subjected to 4-fold serial dilution to reach a final concentration of 1 μM to 0.004 nM (10 concentrates), duplicates for each concentration; and 1% DMSO was present in the detection reaction.
0.12 ng/μL TRKA (G595R) kinase, 1 μM TK Substrate-biotin polypeptide substrate, 4.5 μM ATP, 1× enzymatic buffer, 5 mM MgCl2, and 1 mm DTT. The detection plate was White Proxiplate384-Plus plate (PerkinElmer), and incubated at room temperature for 30 min, and the assay volume was 10 μL.
as §4
The value of 665/620 Ratio minus the value of negative control wells without enzyme, then the obtained value was converted according to the following formula into inhibition rate (%)=(1−Ratiotest/Ratiomax)×100%. Ratiomax was a positive control without tested compound, and Ratiotest was the value of each concentration of different compounds. IC50 (nM) data was obtained by 4 parameter curve fitting (see Table 1).

[3] = target: T3, Recombinant human TRKA (Homo sapiens, UniProt P04629); assay: In vitro activity test on TRKA kinase (HTRF KinEASE TK); settings: 14.68 μM ATP, 40 min
T3 construct: purchased Carna Biosciences
T3 sequence (P04629 33-796): as the sequence (P04629 33-796 G595R) above, with R563G counted along it
Description: as §1, §2, §3
0.2 ng/μL TRKA protein kinase, 1 μM TK Substrate-biotin polypeptide substrate, 14.68 μM ATP, 1× enzymatic buffer, 5 mM MgCl2, and 1 mM DTT. The detection plate was White Proxiplate384-Plus plate (PerkinElmer), and incubated at room temperature for 40 min, and the assay volume was 10 μL.
as §4, §5

[4] = target: T4, Recombinant human TRKB (Homo sapiens, UniProt Q16620); assay: In vitro activity test on TRKB kinase (HTRF KinEASE TK); settings: 4.77 μM ATP, 50 min
T4 construct: purchased Carna Biosciences
T4 sequence (Q16620 32-822): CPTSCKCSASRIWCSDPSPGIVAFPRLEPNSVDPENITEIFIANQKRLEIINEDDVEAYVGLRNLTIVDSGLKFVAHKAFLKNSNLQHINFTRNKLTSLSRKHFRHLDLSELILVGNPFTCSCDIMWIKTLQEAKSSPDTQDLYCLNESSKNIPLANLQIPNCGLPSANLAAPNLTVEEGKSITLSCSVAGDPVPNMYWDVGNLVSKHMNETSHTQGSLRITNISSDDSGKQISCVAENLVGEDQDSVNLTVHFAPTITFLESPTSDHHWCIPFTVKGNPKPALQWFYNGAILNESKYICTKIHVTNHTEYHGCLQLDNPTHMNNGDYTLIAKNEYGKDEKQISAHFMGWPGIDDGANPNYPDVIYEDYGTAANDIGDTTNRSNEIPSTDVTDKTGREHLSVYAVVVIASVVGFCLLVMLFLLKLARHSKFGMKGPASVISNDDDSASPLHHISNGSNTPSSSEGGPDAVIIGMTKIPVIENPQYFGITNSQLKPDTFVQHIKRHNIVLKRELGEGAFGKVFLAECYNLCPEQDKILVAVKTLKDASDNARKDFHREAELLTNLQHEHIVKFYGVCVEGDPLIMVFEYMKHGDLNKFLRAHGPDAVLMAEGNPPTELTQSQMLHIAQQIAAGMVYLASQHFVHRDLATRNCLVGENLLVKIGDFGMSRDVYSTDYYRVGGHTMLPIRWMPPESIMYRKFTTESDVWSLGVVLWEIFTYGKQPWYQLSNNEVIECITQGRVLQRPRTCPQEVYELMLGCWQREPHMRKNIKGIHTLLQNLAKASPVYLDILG
Description: as §1, §2, §3
0.037 ng/μL TRKB protein kinase, 1 μM TK Substrate-biotin polypeptide substrate, 4.77 μM ATP, 1× enzymatic buffer, 5 mM MgCl2, and 1 mM DTT. The detection plate was White Proxiplate 384-Plus plate (PerkinElmer), and incubated at room temperature for 50 min, and the assay volume was 10 μL.
as §4, §5

T1 sequence (Q16288 32-839): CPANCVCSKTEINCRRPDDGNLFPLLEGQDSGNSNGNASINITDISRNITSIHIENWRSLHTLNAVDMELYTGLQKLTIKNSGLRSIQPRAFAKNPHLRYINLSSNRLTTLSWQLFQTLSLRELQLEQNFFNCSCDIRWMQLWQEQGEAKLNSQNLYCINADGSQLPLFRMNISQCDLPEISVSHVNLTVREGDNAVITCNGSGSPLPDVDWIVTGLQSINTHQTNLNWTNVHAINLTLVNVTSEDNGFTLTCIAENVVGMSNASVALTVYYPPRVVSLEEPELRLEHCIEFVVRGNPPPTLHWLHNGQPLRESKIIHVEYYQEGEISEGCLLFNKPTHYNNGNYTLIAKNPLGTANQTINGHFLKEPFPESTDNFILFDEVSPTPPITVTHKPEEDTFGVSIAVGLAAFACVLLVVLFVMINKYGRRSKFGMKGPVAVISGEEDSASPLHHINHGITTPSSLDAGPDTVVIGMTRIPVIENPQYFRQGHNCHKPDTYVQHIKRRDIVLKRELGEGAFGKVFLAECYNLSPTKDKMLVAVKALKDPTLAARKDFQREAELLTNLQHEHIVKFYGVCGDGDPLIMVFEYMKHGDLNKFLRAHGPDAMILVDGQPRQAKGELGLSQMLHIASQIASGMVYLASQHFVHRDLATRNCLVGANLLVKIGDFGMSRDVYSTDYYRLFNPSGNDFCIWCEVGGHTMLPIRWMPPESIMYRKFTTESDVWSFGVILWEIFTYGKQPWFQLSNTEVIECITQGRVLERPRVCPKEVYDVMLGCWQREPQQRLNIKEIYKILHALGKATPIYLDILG

SMILES	pIC50 [1]	pIC50 [2]	pIC50 [3]	pIC50 [4]
OC1CCC(Nc2ccnc3ccc(N4CCC[C@@H]4c4cc(F)ccc4F)nc23)C1 (stereo partly drawn) [Example 1, 3-((6-((R)-2-(2,5-difluorophenyl)pyrrolidin-1-yl)-1,5-naphthyridin-4-yl)amino)cyclopentane-1-ol]	> 8.00	> 7.30	> 8.00	> 7.30
O[C@@H]1CCN(c2ccnc3ccc(N4CCC[C@@H]4c4cc(F)ccc4F)nc23)C1 [Example 3, (R)-1-(6-((R)-2-(2,5-difluorophenyl)pyrrolidin-1-yl)-1,5-naphthyridin-4-yl)pyrrolidin-3-ol]	> 6.30		> 6.82	> 6.30
CN(C)c1ccnc2ccc(N3CCC[C@@H]3c3cc(F)ccc3F)nc12 [Example 4, (R)-6-(2-(2,5-difluorophenyl)pyrrolidin-1-yl)-N,N-dimethyl-1,5-naphthyridin-4-amine]	> 8.00		> 8.00	> 8.00
O[C@H]1CCN(c2ccnc3ccc(N4CCC[C@@H]4c4cc(F)ccc4F)nc23)C1 [Example 5, (S)-1-(6-((R)-2-(2,5-difluorophenyl)pyrrolidin-1-yl)-1,5-naphthyridin-4-yl)pyrrolidin-3-ol]	> 6.82		> 7.00	> 6.30
OCCNc1ccnc2ccc(N3CCC[C@@H]3c3cc(F)ccc3F)nc12 [Example 6, (R)-2-((6-(2-(2,5-Difluorophenyl)pyrrolidin-1-yl)-1,5-naphthyridin-4-yl)amino)ethan-1-ol]	> 6.30		> 7.00	> 6.30
O=C(Nc1ccnc2ccc(N3CCC[C@@H]3c3cc(F)ccc3F)nc12)c1cnc(N2CC[C@H](O)C2)nc1 [Example 8, N-(6-((R)-2-(2,5-difluorophenyl)pyrrolidin-1-yl)-1,5-naphthyridin-4-yl)-2-((S)-3-hydroxypyrrolidin-1-yl)pyrimidin-5-carboxamide]	> 8.00		> 8.00	> 9.00
COc1ccc(CNc2ccnc3ccc(N4CCC[C@@H]4c4cc(F)ccc4F)nc23)cc1 [Example 9, (R)-6-(2-(2,5-Difluorophenyl)pyrrolidin-1-yl)-N-(4-methoxybenzyl)-1,5-naphthyridin-4-amine]	> 7.30		> 7.30	> 7.30
O=C1CC(n2cc(-c3ccnc4ccc(N5C[C@@H](F)C[C@@H]5c5cc(F)ccc5F)nc34)cn2)CCN1 (stereo partly drawn) [Example 19, 4-(4-(6-((2R,4S)-2-(2,5-difluorophenyl)-4-fluoropyrrolidin-1-yl)-1,5-naphthyridin-4-yl)-1H-pyrazol-1-yl)piperidin-2-one]	> 6.30		> 8.00	> 6.30
Fc1ccc(F)c([C@H]2C[C@H](F)CN2c2ccc3ncc(Cl)c(-c4cnn([C@H]5CCCNC5)c4)c3n2)c1 [Example 55, 7-chloro-2-((2R,4S)-2-(2,5-difluorophenyl)-4-fluoropyrrolidin-1-yl)-8-(1-((S)-piperidin-3-yl)-1H-pyrazol-4-yl)-1,5-naphthyridine]	> 6.30		> 8.00	> 6.30
Fc1ccc(F)c([C@H]2C[C@H](F)CN2c2ccc3ncc(Cl)c(-c4cnc(N5CCNCC5)s4)c3n2)c1 [Example 60, 5-(3-Chloro-6-((2R,4S)-2-(2,5-difluorophenyl)-4-fluoropyrrolidin-1-yl)-1,5-naphthyridin-4-yl)-2-(piperazin-4-yl)thiazole]	> 9.00		> 9.00	> 8.00
O=C(Nc1c(Cl)cnc2ccc(N3C[C@@H](F)C[C@@H]3c3cc(F)ccc3F)nc12)C1CCNCC1 [Example 62, N-(3-Chloro-6-((2R,4S)-2-(2,5-difluorophenyl)-4-fluoropyrrolidin-1-yl)-1,5-naphthyridin-4-yl) piperidin-4-carboxamide]			> 9.00	
Fc1ccc(F)c([C@H]2C[C@H](F)CN2c2ccc3nncc(-c4cnn(C5CCNCC5)c4)c3n2)c1 [Example 64, 6-((2R,4S)-2-(2,5-difluorophenyl)-4-fluoropyrrolidin-1-yl)-4-(1-(piperidin-4-yl)-1H-pyrazol-4-yl)pyrido[3,2-c]pyridazine]			> 9.00	
O[C@H]1CCN(c2nc(-c3ncnc4ccc(N5C[C@@H](F)C[C@@H]5c5cc(F)ccc5F)nc34)no2)C1 [Example 68, (S)-1-(3-(6-((2R,4S)-2-(2,5-difluorophenyl)-4-fluoropyrrolidin-1-yl)pyrido[3,2-d]pyrimidin-4-yl)-1,2,4-oxadiazol-5-yl)pyrrolidin-3-ol]	> 8.00	> 8.00	> 9.00	> 8.00
Fc1ccc(F)c([C@H]2C[C@H](F)CN2c2ncc3ncnc(-c4cnn(C5CCNCC5)c4)c3n2)c1 [Example 76, 2-((2R,4S)-2-(2,5-difluorophenyl)-4-fluoropyrrolidin-1-yl)-8-(1-(piperidin-4-yl)-1H-pyrazol-4-yl)pyrimido[5,4-d]pyrimidine]	> 8.00	> 8.00	> 9.00	> 8.00
OC1CCN(c2nc(-c3ncnc4ccc(N5C[C@@H](F)C[C@@H]5c5cc(F)ccc5F)nc34)no2)CC1 [Example 80, 1-(3-(6-((2R,4S)-2-(2,5-difluorophenyl)-4-fluoropyrrolidin-1-yl)pyrido[3,2-d]pyrimidin-4-yl)-1,2,4-oxadiazol-5-yl)piperidin-4-ol]	> 8.00	> 8.00	> 9.00	> 8.00
Fc1ccc(F)c([C@H]2C[C@H](F)CN2c2ccc3ncnc(-c4noc(C5CCNCC5)n4)c3n2)c1 [Example 81, 3-(6-((2R,4S)-2-(2,5-difluorophenyl)-4-fluoropyrrolidin-1-yl)pyrido[3,2-d]pyrimidin-4-yl)-5-(piperidin-4-yl)-1,2,4-oxadiazole]	> 8.00	> 8.00	> 9.00	> 8.00
Fc1ccc(F)c([C@H]2C[C@H](F)CN2c2ccc3ncc(F)c(-c4cn(C5CCNCC5)nn4)c3n2)c1 [Example 83, 2-((2R,4S)-2-(2,5-difluorophenyl)-4-fluoropyrrolidin-1-yl)-7-fluoro-8-(1-(piperidin-4-yl)-1H-1,2,3-triazol-4-yl)-1,5-naphthyridine]	> 8.00	> 8.00	> 9.00	> 8.00
OC1CCN(c2nc(-c3c(F)cnc4ccc(N5C[C@@H](F)C[C@@H]5c5cc(F)ccc5F)nc34)no2)CC1 [Example 84, 1-(3-(6-((2R,4S)-2-(2,5-difluorophenyl)-4-fluoropyrrolidin-1-yl)-3-fluoro-1,5-naphthyridin-4-yl)-1,2,4-oxadiazol-5-yl)piperidin-4-ol]	> 9.00		> 9.00	> 8.00
CC1(O)CCN(c2ncc(-c3ncnc4ccc(N5C[C@@H](F)C[C@@H]5c5cc(F)ccc5F)nc34)cn2)C1 (stereo partly drawn) [Example 85, 1-(5-(6-((2R,4S)-2-(2,5-difluorophenyl)-4-fluoropyrrolidin-1-yl)pyrido[3,2-d]pyrimidine-4-yl)pyrimidin-2-yl)-3-methylpyrrolidin-3-ol]	> 9.00	> 8.00	> 9.00	> 9.00
Fc1ccc(F)c([C@H]2C[C@H](F)CN2c2ccc3ncnc(-c4cn(C5CCNCC5)nn4)c3n2)c1 [Example 86, 6-((2R,4S)-2-(2,5-Difluorophenyl)-4-fluoropyrrolidin-1-yl)-4-(1-(piperidin-4-yl)-1H-1,2,3-triazol-4-yl)pyrido[3,2-d]pyrimidine]	> 9.00	> 8.00	> 9.00	> 8.00
